Assay results reported in US5445951A, “Regioselective enzymatic deacylation of sucrose esters in anhydrous organic media” (priority 1993, dated 1995).

How the values were obtained:
[1] = test system: lipase AY 30; assay: Effect of the solvent on lipase AY 30 SOA deacetylation; format: biochemical, Candida cylindracea; settings: lipase AY 30, solvent as labelled, 24 hrs
Description: Identical enzyme catalyzed SOA deacetylations were run in numerous anhydrous solvents. After 24 hrs incubation an aliquot was analyzed by HPLC.
(§1) Enzyme and Solvent Screening for SOA Deacetylation. A scintillation vial was charged successively with 100 mg of powdered enzyme as received or prepared as described and 1.0 ml of 20 mM sucrose octaacetate (SOA) dissolved in an organic solvent. Following a 5 sec sonication, the vial was incubated in a controlled-temperature shaker at 45° C. and 300 RPM for 24 hrs. A 200 μl aliquot of the reaction mixture was withdrawn and centrifuged. The supernatant was collected and evaporated under a stream of N2. The residue was reconstituted in 200 μl of acetonitrile and 10 μl of this solution was analyzed by HPLC.

[2] = format: physicochemical; settings: estimated from known log P values / increments
Description: ^a) log P is a measurement of the solvent hydrophobicity (logarithm o
the solvent partition coefficient between noctanol and water [Rekker, "Th
Hydrophobic Fragmental Constant", Elsevier, Amsterdam (1977)]). The log P
values from this table are from Laane et al. , Biotechnol Bioeng. 30,81

[3] = test system: protease type XXIII; assay: Effect of the solvent on protease type XXIII catalyzed deacylation of SOP; format: biochemical, Aspergillus oryzae; settings: 24 hrs; for SheptaP's (8.3 min): HPLC peak 8.3 min; for SheptaP's (8.9 min): HPLC peak 8.9 min; for SheptaP's (9.9 min): HPLC peak 9.9 min; for SOP: solvent as labelled
Description: (§2) Identical SOP deacylations were performed with lipase AY 30 or protease type XXIII in numerous anhydrous organic solvents, as shown in Tables 12 and 13.
as §1, with “Solvent” for “Enzyme and Solvent”, “screening” for “Screening”, “SOP deacylation.” for “SOA Deacetylation.”, “lipase AY 30” for “powdered enzyme as received”, “protease type XXIII” for “prepared”, “octapropionate (SOP) and 200mM butanol” for “octaacetate (SOA)”

[4] = test system: lipase AY 30; assay: Effect of the solvent on lipase AY 30 catalyzed deacylation of SOP; format: biochemical, Candida cylindracea; settings: for ShexaP (4.2 min) / SheptaP's (8.9 min) / SheptaP's (9.4 min) / SheptaP's ([…]): lipase AY 30, 24 hrs; for ShexaP (4.2 min): HPLC peak 4.2 min; for SheptaP's (8.9 min): HPLC peak 8.9 min; for SheptaP's (9.4 min): HPLC peak 9.4 min; for SheptaP's ([…]): HPLC peak […]; for SOA: lipase AY 30, solvent as labelled, 200 mM butanol, 24 hrs, peak 21.4 min; as to SheptaP's ([…]): HPLC peak 8.2 min
Description: as §2
as §1, with “Solvent” for “Enzyme and Solvent”, “screening” for “Screening”, “SOP deacylation.” for “SOA Deacetylation.”, “lipase AY 30” for “powdered enzyme as received”, “protease type XXIII” for “prepared”, “octapropionate (SOP) and 200mM butanol” for “octaacetate (SOA)”

[5] = test system: proleather; assay: Nucleophile screening for proleather catalyzed deacetylation of SOA in diisopropyl ether; format: biochemical, Bacillus subtilis; settings: for % conv: 66 hrs
Description: (§3) Nucleophile screening for alcalase, proleather or lipase AP 12 catalyzed deacetylation of SOA. A scintillation vial was charged successively with 100 mg of powdered enzyme prepared as described, 1.0 ml of 20 mM sucrose octaacetate (SOA) and 200 mM of the nucleophile dissolved in diisopropyl ether. Following a 5 sec sonication, the vial was incubated in a controlled-temperature shaker at 45° C. and 300 RPM for 66 hrs. A 200 μl aliquot of the reaction mixture was withdrawn and centrifuged. The supernatant was collected and evaporated under a stream of N2. The residue was reconstituted in 200 μl of acetonitrile and 10 μl of this solution was analyzed by HPLC. For screening concentration effects on enzyme activity, the same protocol was followed except the nucleophile concentration was varied from 0 to 2000 mM.

[6] = biological target: T1, alcalase (Bacillus licheniformis, UniProt P00780); assay: Nucleophile screening for alcalase catalyzed deacetylation of SOA in diisopropyl ether; format: biochemical
T1 construct: purchased Novo Nordisk (gift)
T1 sequence (P00780 106-379): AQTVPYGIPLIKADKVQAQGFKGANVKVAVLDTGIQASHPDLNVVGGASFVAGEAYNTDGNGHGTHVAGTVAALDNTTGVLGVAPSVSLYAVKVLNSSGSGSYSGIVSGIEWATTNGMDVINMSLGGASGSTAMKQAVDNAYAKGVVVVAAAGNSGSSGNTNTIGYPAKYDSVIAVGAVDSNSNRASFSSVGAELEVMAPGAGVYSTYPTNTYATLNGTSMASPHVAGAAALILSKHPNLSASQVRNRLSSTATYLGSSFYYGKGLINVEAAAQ
Description: as §3

[7] = test system: lipase AP 12; assay: Nucleophile screening for lipase AP 12 catalyzed deacetylation of SOA in diisopropyl ether; format: biochemical, Aspergillus niger; settings: for % conv: 66 hrs
Description: as §3

[8] = Activity and regioselectivity of enzymes for SOA deacetylation; format: biochemical; settings: for regioselectivity of SOA deacetylation: in words
Description: An important aspect of this work was to assign, unequivocally, the structures of all sucrose hepta-, hexa-, and pentaacetates obtained by enzymatic deacetylation of SOA. These structures were assigned by perdeuterioacetylation followed by ^1 H-NMR, as described by Rathbone E. B., Carbohydr. Res., 205,402 (1990).
HPLC analysis. Routine screening was performed on a Supelcosil LC-18-DB column (150×4.6 mm, 5μ) using an isocratic mode with either acetonitrile/water (35/65) or acetonitrile/water (60/40) as eluant for reactions involving sucrose octaacetate (SOA) and sucrose octapropionate (SOP), respectively. All flow rates were 1.0 ml/min with UV detection at 220 nm. To identify all products from SOA deacetylation, a gradient mode was employed using 15% to 35% acetonitrile in water over 40 minutes followed by 35/65 acetonitrile/water isocratic elution for 20 minutes. To screen nucleophiles for SOA deacetylation, an isocratic elution mode was employed using 30/70 acetonitrile/water for 16 min followed by a gradient from 30% to 35% acetonitrile in water over 5 min and finally isocratic elution using 35/65 acetonitrile/water for 16 min. To assess the enzyme regiochemistry for SOA deacetylation, an isocratic elution mode was employed using 25/75 acetonitrile/water for 55 minutes.
Identification of the Sucrose Hepta, Hexa or Pentaacetates Obtained Enzymatically. The fraction of sucrose hepta, hexa or pentaacetates were identified as follows. The compound(s) of interest was dissolved in 1.0 ml 99.0 atom % pyridine--d5 followed by addition of 1.0 ml 99 +atom % acetic anhydride--d6. The resulting solution was shaken at 45° C. and 300 RPM for several hours until TLC analysis (silica gel, 9/1 CHCl3 /MeOH) indicated complete reaction. The reaction mixture was evaporated in vacuo and the residue washed several times with water to remove residual pyridine-d5 and/or acetic anhydride-d6. The resulting oily solid was dissolved in 5 ml off chloroform and passed through Whatmann 12.5 cm 1 PS silicone treated filter paper to remove water.
(§4) The pH of commercial powdered enzymes was adjusted in the following way: The enzyme (3 g) was dissolved in 25 ml of an appropriate buffer and the pH adjusted with dilute NaOH or citric/phosphoric acid solution. Cold acetone (37.5 ml at -20° C.) was added and the precipitate collected on a medium porosity glass funnel and dried overnight at 2 millitorr. The protein pellet was ground to a fine powder and equilibrated at 4° C. over saturated aqueous potassium carbonate (RH: 43%) for 24 hrs.
as §1

[9] = SOP deacylation catalyzed by pH precipitated enzymes in diisopropyl ether; format: biochemical
Description: To increase the number and/or activities of enzymes active with SOP, pH precipitation experiments, as described for SOA, were undertaken.
as §4

[10] = SOA deacetylation catalyzed by pH precipitated enzymes in diisopropyl ether; format: biochemical
Description: A wide variety of hydrolytic enzymes were initially screened for their ability to regioselectively deacetylate SOA in organic solvents. […] Enzyme activity is dependent upon the presence of a minimum shell of water surrounding the enzyme. […] It is known that one way to improve the catalytic power of an enzyme in organic solvent is to use it in the right ionic state.
as §4, §1

[11] = nucleophile 200 mM, peak height ratio 1'-OH / 6'-OH heptaacetate
[12] = lipase AP 12, nucleophile 200 mM
[13] = methanol 20 mM, peak height ratio
[14] = methanol 50 mM, peak height ratio
[15] = methanol 100 mM, peak height ratio
[16] = methanol 200 mM (Table 10), peak height ratio
[17] = methanol 500 mM, peak height ratio
[18] = methanol 1000 mM, peak height ratio
[19] = methanol 2000 mM, peak height ratio
[20] = HPLC sucrose heptaacetate peak height
[21] = diisopropyl ether, 24 hrs incubation, HPLC

Molecule: CC1CCC(C)O1 (stereo not shown) [2,5-dimethyl THF, 2,5-dimethyltetrahydrofuran]
- SOA [1]: 96.2%
- SheptaA [1]: 3.8%
- ShexaA [1]: 0%
- log P [2]: 1.5

Molecule: CC(C)=O [acetone]
- SheptaP's (8.3 min) [3]: 0.7%
- SheptaP's (8.9 min) [3]: 0%
- SheptaP's (9.9 min) [3]: 0.2%
- SOP [3]: 99.1%
- SOA [1]: 98.6%
- SheptaA [1]: 1.4%
- ShexaA [1]: 0%
- ShexaP (4.2 min) [4]: 0%
- SheptaP's (8.9 min) [4]: 0%
- SheptaP's (9.4 min) [4]: 0.1%
- SheptaP's ([…]) [4]: 1.2%
- SOA [4]: 98.7%

Molecule: OC1CCCCC1 [cyclohexanol]
- % conv ([5]; nucleophile 200 mM): 38.2%
- regiochem [5, 11]: 3.9
- regiochem [6, 11]: 8.0
- SOA [1]: 96.8%
- SheptaA [1]: 2.9%
- ShexaA [1]: 0.3%
- % conv [7, 12]: 25.0%

Molecule: CO [methanol]
- increase in conversion ([5]; 1.0M methanol): 120%
- % conv ([5]; methanol 20 mM): 38.1%
- regiochem [5, 13]: 4.8
- % conv ([5]; methanol 50 mM): 41.2%
- regiochem [5, 14]: 5.9
- % conv ([5]; methanol 100 mM): 44.6%
- regiochem [5, 15]: 6.6
- % conv ([5]; methanol 200 mM (Table 10)): 49.4%
- regiochem [5, 16]: 7.9
- % conv ([5]; methanol 500 mM): 65.4%
- regiochem [5, 17]: 12.4
- % conv ([5]; methanol 1000 mM): 71.1%
- regiochem [5, 18]: 12.6
- % conv ([5]; methanol 2000 mM): 66.8%
- regiochem [5, 19]: 11.5
- % conv ([5]; nucleophile 200 mM): 53.8%
- regiochem [5, 11]: 8.4
- increase in conversion relative to reaction with no added nucleophile ([6]; 200 mM): at least 25%
- enhancement in overall conversion ([6]; 0.5M methanol, in words): modest enhancements in overall conversion
- regiochem [6, 13]: 7.4
- regiochem [6, 14]: 8.3
- regiochem [6, 15]: 8.1
- regiochem [6, 16]: 8.6
- regiochem [6, 17]: 8.2
- regiochem [6, 18]: 5.6
- regiochem [6, 19]: 7.1
- regiochem [6, 11]: 8.6
- enhancement in overall conversion ([7]; lipase AP 12, 1.0M methanol, in words): modest enhancements in overall conversion
- % conv ([7]; lipase AP 12, methanol 20 mM): 22.4%
- % conv ([7]; lipase AP 12, methanol 50 mM): 23.5%
- % conv ([7]; lipase AP 12, methanol 100 mM): 25.7%
- % conv ([7]; lipase AP 12, methanol 200 mM (Table 10)): 24.0%
- % conv ([7]; lipase AP 12, methanol 500 mM): 31.3%
- % conv ([7]; lipase AP 12, methanol 1000 mM): 33.4%
- % conv ([7]; lipase AP 12, methanol 2000 mM): 21.3%
- % conv [7, 12]: 28.2%

Molecule: CCCO [propanol]
- % conv ([5]; nucleophile 200 mM): 46.4%
- regiochem [5, 11]: 5.3
- regiochem [6, 11]: 8.8
- % conv [7, 12]: 26.2%

Molecule: OCCc1ccccc1 [phenethyl alcohol]
- % conv ([5]; nucleophile 200 mM): 51.5%
- regiochem [5, 11]: 5.3
- regiochem [6, 11]: 7.3
- % conv [7, 12]: 25.7%

Molecule: CCC(C)=O [butanone]
- SheptaP's (8.3 min) [3]: 1.0%
- SheptaP's (8.9 min) [3]: 0%
- SheptaP's (9.9 min) [3]: 0.2%
- SOP [3]: 98.8%
- ShexaP (4.2 min) [4]: 0%
- SheptaP's (8.9 min) [4]: 0%
- SheptaP's (9.4 min) [4]: 0.2%
- SheptaP's ([…]) [4]: 0.9%
- SOA [4]: 98.9%

Molecule: CC#N [acetonitrile]
- SheptaP's (8.3 min) [3]: 1.1%
- SheptaP's (8.9 min) [3]: 0%
- SheptaP's (9.9 min) [3]: 0.5%
- SOP [3]: 98.4%
- SOA [1]: 98.6%
- SheptaA [1]: 1.4%
- ShexaA [1]: 0%
- ShexaP (4.2 min) [4]: 0%
- SheptaP's (8.9 min) [4]: 0%
- SheptaP's (9.4 min) [4]: 0.2%
- SheptaP's ([…]) [4]: 1.1%
- SOA [4]: 98.7%

B1: alcalase: Novo Nordisk, Bacillus licheniformis (protein, UniProt P00780 106-379, looked up)
Subtilisin Carlsberg: T1 sequence (P00780 106-379)
- regiochemistry 1'OH [8, 20]: 13
- regiochemistry 6'OH [8, 20]: 2
- buffer pH (optimal pH for enzyme activity in anhydrous diisopropyl ether) ([8]; SOA deacetylation): 9.0
- regioselectivity of SOA deacetylation [8]: primarily at 1'- position with some reaction occurring at the 6'- position
- regioselectivity of SOA deacetylation ([8]; listed as Alcalase): at the 1' position and secondarily at the 6' position
- % conv ([8]; total of all sucrose hepta and hexa acetates): 28.1%
- buffer pH (optimal pH for enzyme activity in anhydrous media) ([9]; SOP deacylation): 9.0
- SOP ([9]; diisopropyl ether, 24 hrs): 81.8%
- SheptaP's ([9]; diisopropyl ether, 24 hrs): 15.9%
- ShexaP's ([9]; diisopropyl ether, 24 hrs): 2.3%
- capability of deacetylating SOP ([9]; pH precipitated, in words): capable of deacetylating SOP
- buffer pH (optimal pH for enzyme activity in anhydrous solvents) ([10]; SOA deacetylation): 9.0
- SheptaAs [10, 21]: 39.7%
- ShexaAs [10, 21]: 10.9%
- SOA ([10]; residual SOA, diisopropyl ether, 24 hrs incubation, HPLC): 49.4%
